SMILES strings stand for the structures. “And” between values parts separate entries of the source, which are not always exact repeats. Equal entries are not always repeated.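 Following 48 hours of exposure in 96-well plates, responses at five concentrations were used to interpolate endpoints linearly. GI50 marks 50% less growth. TGI marks complete inhibition of growth.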

The first experiment deals with UACC-257 melanoma. Briefly: DTP human tumour cell line panel, 48 h.
On to `C=CCN(CC=C)Cn1c(=S)sc2ccccc21`, for which the TGI is more than 100 µM.

For the molecule `O=c1[nH]c2nc3ccccc3c(=O)n2/c1=C/c1ccc(O)cc1`, the concentration for total growth inhibition (TGI) was more than 100 µM.

On to `COc1ccc(-c2c(C#N)c(S)n(C3OC(COC(C)=O)C(OC(C)=O)C(OC(C)=O)C3OC(C)=O)c(=O)c2C#N)cc1` (configuration not stated), for which the GI50 was > 100 µM and 19.8 µM; the total growth inhibition concentration (TGI) is > 100 µM and 42 µM.

`C[C@]12OC[C@H](c3ccccc3)N1C(=O)C1[C@H]2CC12SCCS2` (some centres not stated) yielded a concentration for total growth inhibition (TGI) of more than 100 µM.

The molecule `Cc1cccc(N2C(=O)C3ON(C(C(N)=O)c4ccccc4)C(c4c5ccccc5c(Cl)c5ccccc45)C3C2=O)c1C` (configuration not stated) gave a concentration for total growth inhibition (TGI) of 18.1 µM.

`Cc1ccccc1C1OC1C(=O)c1ccccc1N` (configuration not stated) displayed a total growth inhibition concentration (TGI) of more than 100 µM.

For the molecule `COc1cc(COC(=O)N[C@H](C(=O)O)C(C)(C)C)c([N+](=O)[O-])cc1OC`, the TGI was more than 100 µM.

Another experiment has as its system RPMI-8226 leukemia. Description: DTP human tumour cell line panel, 48 h.
As to `COc1ccc2c(c1)c1c(n2CCN2CCOCC2)-c2ccccc2CC1`, the TGI was 64.2 µM.

Turning to `O=C1CC(O)c2c1csc2Br` (configuration not stated), the TGI came to 74.5 µM.

`CCCCCCCCCC[C@@H](O)[C@H]1CC[C@H]([C@H]2CC[C@H]([C@H](O)CCCCCCCCCC[C@@H]3CC(CC(C)=O)C(=O)O3)O2)O1` (some centres not stated): the GI50 was 1.39 µM and the TGI was more than 50 µM.

The molecule `CCOC(=O)c1cc(C2(O)CCN(Cc3ccccc3)C2=O)c(-c2cc(C)no2)[nH]1` (configuration not stated) returned a concentration for total growth inhibition (TGI) of more than 100 µM.

As to `Cc1cn(C2C=CC(COP(=O)(OCC3=CC(=O)c4ccccc4C3=O)N(C)CCCCCl)O2)c(=O)[nH]c1=O` (configuration not stated), the concentration for total growth inhibition (TGI) was 20.8 µM.

On to `Clc1nc(Cl)nc(NC23CC4CC(CC(C4)C2)C3)n1`, for which the TGI turned out to be 38.4 µM.

In turn, `CCOC(=O)c1cc2c([N+](=O)[O-])c(NC(C)=O)ccc2s1` displayed a TGI of more than 100 µM.

As to `CCOC(=O)c1cc(=C2\CCN(CC(C)CC)C2=S)/c(=C(/O)CC)[nH]1` (configuration not stated), the TGI was determined as 25.4 µM. In other words, the double-digit micromolar range.

For the molecule `Cc1ccc2c(c1C)CC1(Cc3c(ccc4c3CCC4)C1=O)C2=O` (configuration not stated), the total growth inhibition concentration (TGI) is more than 100 µM.

The molecule `OCC1CCCC(n2cnc3c(=S)nc[nH]c32)O1` (configuration not stated) came in with a total growth inhibition concentration (TGI) of more than 100 µM.

Molecule `COc1cc2oc(-c3ccc(O)cc3)c(OC3OC(C)C(O)C(O)C3O)c(=O)c2c(O)c1OC` (configuration not stated) displayed a total growth inhibition concentration (TGI) of more than 100 µM.

As for `CCCCc1c(O)nc(Nc2nc3ccccc3[nH]2)[nH]c1=O`, the TGI is more than 100 µM.

The molecule `CC1(C)CC2(C)CC1CC2O` (configuration not stated) had a concentration for total growth inhibition (TGI) of more than 100 µM.

Regarding `Clc1cc(N/N=C(/c2ccccc2)c2ncccn2)ncn1`, the concentration for total growth inhibition (TGI) is more than 100 µM.

Molecule `Cc1c(S(=O)(=O)c2ccccc2)c(N)n(Cc2ccccc2)c1C` had a TGI of more than 100 µM.

`CCC(=O)C(c1ccccc1)c1ccccn1` (configuration not stated) gave a TGI of more than 100 µM.

Take `CCCN=C1CC(C)Nc2ccccc2N1` (configuration not stated): the TGI is more than 100 µM.

Turning to `Cc1ccc(-c2cc(N)n(-c3nc4c([nH]3)c(=O)n(C)c(=O)n4C)n2)cc1`, the concentration for total growth inhibition (TGI) is more than 100 µM.

`O=c1[nH]c2nc3ccccc3c(=O)n2/c1=C/c1ccc(O)cc1` showed a TGI of 53.2 µM.

In the case of `COc1ccc(-c2c(C#N)c(S)n(C3OC(COC(C)=O)C(OC(C)=O)C(OC(C)=O)C3OC(C)=O)c(=O)c2C#N)cc1` (configuration not stated), the GI50 was > 100 µM and 23.4 µM; the TGI is > 100 µM and 60.5 µM.

As to `C[C@]12OC[C@H](c3ccccc3)N1C(=O)C1[C@H]2CC12SCCS2` (some centres not stated), the concentration for total growth inhibition (TGI) was more than 100 µM.

The molecule `Cc1ccccc1C1OC1C(=O)c1ccccc1N` (configuration not stated) gave a TGI of more than 100 µM.

For `COc1cc(COC(=O)N[C@H](C(=O)O)C(C)(C)C)c([N+](=O)[O-])cc1OC`, the TGI was more than 100 µM.

A further experiment deals with PC-3 prostate. Description: DTP human tumour cell line panel, 48 h.
In the case of `COc1ccc2c(c1)c1c(n2CCN2CCOCC2)-c2ccccc2CC1`, the total growth inhibition concentration (TGI) is more than 100 µM.

`O=C1CC(O)c2c1csc2Br` (configuration not stated) yielded a TGI of more than 100 µM.

On to `CCCCCCCCCC[C@@H](O)[C@H]1CC[C@H]([C@H]2CC[C@H]([C@H](O)CCCCCCCCCC[C@@H]3CC(CC(C)=O)C(=O)O3)O2)O1` (some centres not stated), for which the GI50 is 5.3 µM and the concentration for total growth inhibition (TGI) is more than 50 µM.

With `CCOC(=O)c1cc(C2(O)CCN(Cc3ccccc3)C2=O)c(-c2cc(C)no2)[nH]1` (configuration not stated), the concentration for total growth inhibition (TGI) is more than 100 µM.

On to `Cc1cn(C2C=CC(COP(=O)(OCC3=CC(=O)c4ccccc4C3=O)N(C)CCCCCl)O2)c(=O)[nH]c1=O` (configuration not stated), for which the concentration for total growth inhibition (TGI) was determined as 24.5 µM.

`Clc1nc(Cl)nc(NC23CC4CC(CC(C4)C2)C3)n1` gave a TGI of more than 49.6 µM.

For `CCOC(=O)c1cc2c([N+](=O)[O-])c(NC(C)=O)ccc2s1`, the total growth inhibition concentration (TGI) was more than 100 µM.

As for `CCOC(=O)c1cc(=C2\CCN(CC(C)CC)C2=S)/c(=C(/O)CC)[nH]1` (configuration not stated), the concentration for total growth inhibition (TGI) is 38.8 µM.

`Cc1ccc2c(c1C)CC1(Cc3c(ccc4c3CCC4)C1=O)C2=O` (configuration not stated) yielded a concentration for total growth inhibition (TGI) of more than 100 µM.

For `OCC1CCCC(n2cnc3c(=S)nc[nH]c32)O1` (configuration not stated), the TGI was more than 100 µM.

As for `COc1cc2oc(-c3ccc(O)cc3)c(OC3OC(C)C(O)C(O)C3O)c(=O)c2c(O)c1OC` (configuration not stated), the concentration for total growth inhibition (TGI) was more than 100 µM.

For `CCCCc1c(O)nc(Nc2nc3ccccc3[nH]2)[nH]c1=O`, the TGI was more than 100 µM.

For `CC1(C)CC2(C)CC1CC2O` (configuration not stated), the TGI is more than 100 µM.

In turn, `Clc1cc(N/N=C(/c2ccccc2)c2ncccn2)ncn1` came in with a concentration for total growth inhibition (TGI) of more than 100 µM.

Molecule `Cc1c(S(=O)(=O)c2ccccc2)c(N)n(Cc2ccccc2)c1C` showed a TGI of more than 100 µM.

For `CCC(=O)C(c1ccccc1)c1ccccn1` (configuration not stated), the TGI was more than 100 µM.

In turn, `CCCN=C1CC(C)Nc2ccccc2N1` (configuration not stated) had a concentration for total growth inhibition (TGI) of more than 100 µM.

As for `Cc1ccc(-c2cc(N)n(-c3nc4c([nH]3)c(=O)n(C)c(=O)n4C)n2)cc1`, the TGI is more than 100 µM.

On to `C=CCN(CC=C)Cn1c(=S)sc2ccccc21`, for which the TGI was more than 100 µM.

`O=c1[nH]c2nc3ccccc3c(=O)n2/c1=C/c1ccc(O)cc1`: the TGI was more than 100 µM.

For `COc1ccc(-c2c(C#N)c(S)n(C3OC(COC(C)=O)C(OC(C)=O)C(OC(C)=O)C3OC(C)=O)c(=O)c2C#N)cc1` (configuration not stated), the TGI was more than 100 µM.

In the case of `C[C@]12OC[C@H](c3ccccc3)N1C(=O)C1[C@H]2CC12SCCS2` (some centres not stated), the concentration for total growth inhibition (TGI) is more than 100 µM.

On to `Cc1cccc(N2C(=O)C3ON(C(C(N)=O)c4ccccc4)C(c4c5ccccc5c(Cl)c5ccccc45)C3C2=O)c1C` (configuration not stated), for which the concentration for total growth inhibition (TGI) was determined as 17 µM.

Regarding `Cc1ccccc1C1OC1C(=O)c1ccccc1N` (configuration not stated), the total growth inhibition concentration (TGI) was more than 100 µM.

As for `COc1cc(COC(=O)N[C@H](C(=O)O)C(C)(C)C)c([N+](=O)[O-])cc1OC`, the concentration for total growth inhibition (TGI) is more than 100 µM.

The test system of another experiment is RXF 393 renal. Briefly: DTP human tumour cell line panel, 48 h.
As to `COc1ccc2c(c1)c1c(n2CCN2CCOCC2)-c2ccccc2CC1`, the TGI is more than 100 µM.

In the case of `O=C1CC(O)c2c1csc2Br` (configuration not stated), the TGI is 38.1 µM.

`CCCCCCCCCC[C@@H](O)[C@H]1CC[C@H]([C@H]2CC[C@H]([C@H](O)CCCCCCCCCC[C@@H]3CC(CC(C)=O)C(=O)O3)O2)O1` (some centres not stated): the concentration for total growth inhibition (TGI) was more than 50 µM.

As to `CCOC(=O)c1cc(C2(O)CCN(Cc3ccccc3)C2=O)c(-c2cc(C)no2)[nH]1` (configuration not stated), the TGI stood at 65.7 µM.

`Cc1cn(C2C=CC(COP(=O)(OCC3=CC(=O)c4ccccc4C3=O)N(C)CCCCCl)O2)c(=O)[nH]c1=O` (configuration not stated) had a TGI of 15.8 µM.

On to `Clc1nc(Cl)nc(NC23CC4CC(CC(C4)C2)C3)n1`, for which the TGI was found to be 32.1 µM.

Turning to `CCOC(=O)c1cc2c([N+](=O)[O-])c(NC(C)=O)ccc2s1`, the TGI was more than 100 µM.

Turning to `CCOC(=O)c1cc(=C2\CCN(CC(C)CC)C2=S)/c(=C(/O)CC)[nH]1` (configuration not stated), the concentration for total growth inhibition (TGI) is 44.9 µM.

For orientation: TGI means the concentration at which net growth stops. A low value points to more potent growth arrest. By GI50 is commonly meant the concentration giving 50% growth inhibition.

(Values after PubChem BioAssay (NCI).)
